Source: patent publication US8008291B2 (Mimetica Pty Ltd, priority 2008, dated 2011)

Target: T1, human MC5R (hMC5R) (Homo sapiens, UniProt P33032)
T1 construct: purchased Perkin Elmer RBXMC5M400UA
Assay: Human MC5R radioligand binding assay (membranes, [125I] NDP-MSH displacement)
Settings: hMC5R binding; tested as trifluoroacetate or hydrochloride salts, or free bases; read-out: MC5R radioligand IC50
Summary of the method: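 Frozen human MC5R membranes incubated with test compound and in-house iodogen-labeled, HPLC-purified [125I]NDP-MSH for 1 hr at 37° C. Binding measured as displacement of the radioligand.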

T1 sequence (P33032 whole entry): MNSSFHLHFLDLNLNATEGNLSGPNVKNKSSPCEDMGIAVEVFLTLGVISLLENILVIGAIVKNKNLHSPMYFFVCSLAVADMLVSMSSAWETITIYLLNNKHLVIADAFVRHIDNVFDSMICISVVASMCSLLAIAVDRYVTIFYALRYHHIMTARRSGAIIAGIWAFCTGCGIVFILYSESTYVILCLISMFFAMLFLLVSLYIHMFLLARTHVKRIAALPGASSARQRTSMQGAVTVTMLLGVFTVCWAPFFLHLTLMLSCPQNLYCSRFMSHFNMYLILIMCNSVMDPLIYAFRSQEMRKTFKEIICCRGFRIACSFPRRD

Row | Structure (SMILES) | IC50 [nM]
1 | N=C(N)NCCC[C@@H]1N[C@H](CNC(=O)c2ccc3ccccc3c2)CCN(C[C@@H](NC(=O)c2ccccc2)c2ccccc2)C1=O [Compound 287, N-(((3S,5S)-1-((S)-2-benzamido-2-phenylethyl)-3-(3-guanidinopropyl)-2-oxo-1,4-diazepan-5-yl)methyl)-2-naphthamide] | < 1000
2 | N=C(N)NCCC[C@@H]1N[C@H](CNC(=O)c2ccc3ccccc3c2)CCN(C[C@H](NC(=O)c2ccccc2)c2ccccc2)C1=O [Compound 288, N-(((3S,5S)-1-((R)-2-benzamido-2-phenylethyl)-3-(3-guanidinopropyl)-2-oxo-1,4-diazepan-5-yl)methyl)-2-naphthamide] | < 10000
3 | COC(CN1CC[C@@H](CNC(=O)c2ccc3ccccc3c2)N[C@@H](CCCNC(=N)N)C1=O)c1ccccc1 (stereo partly drawn) [Compound 289, N-(((3S,5S)-3-(3-guanidinopropyl)-1-(2-methoxy-2-phenylethyl)-2-oxo-1,4-diazepan-5-yl)methyl)-2-naphthamide] | < 1000
4 | CCCOC(CN1CC[C@@H](CNC(=O)c2ccc3ccccc3c2)N[C@@H](CCCNC(=N)N)C1=O)c1ccccc1 (stereo partly drawn) [Compound 290, N-(((3S,5S)-3-(3-guanidinopropyl)-2-oxo-1-(2-phenyl-2-propoxyethyl)-1,4-diazepan-5-yl)methyl)-2-naphthamide] | < 1000
5 | N=C(N)NCCC[C@@H]1N[C@H](CNC(=O)c2ccc3ccccc3c2)CCN(CC(OCc2ccccc2)c2ccccc2)C1=O (stereo partly drawn) [Compound 291, N-(((3S,5S)-1-(2-(benzyloxy)-2-phenylethyl)-3-(3-guanidinopropyl)-2-oxo-1,4-diazepan-5-yl)methyl)-2-naphthamide] | < 1000
6 | C=CCOC(CN1CC[C@@H](CNC(=O)c2ccc3ccccc3c2)N[C@@H](CCCNC(=N)N)C1=O)c1ccccc1 (stereo partly drawn) [Compound 292, N-(((3S,5S)-1-(2-(allyloxy)-2-phenylethyl)-3-(3-guanidinopropyl)-2-oxo-1,4-diazepan-5-yl)methyl)-2-naphthamide] | < 1000
7 | CC(=O)NCCC[C@@H]1N[C@H](CNC(=O)/C=C/c2ccc(C)cc2)CCN(CC(c2ccccc2)c2ccccc2)C1=O [Compound 293, (E)-N-(((3S,5S)-3-(3-acetamidopropyl)-1-(2,2-diphenylethyl)-2-oxo-1,4-diazepan-5-yl)methyl)-3-p-tolylacrylamide] | < 1000
8 | Cc1ccc(/C=C/C(=O)NC[C@@H]2CCN(CC(c3ccccc3)c3ccccc3)C(=O)[C@H](CCCNC(=O)C3CCCCC3)N2)cc1 [Compound 294, N-(3-((2S,7S)-4-(2,2-diphenylethyl)-3-oxo-7-(((E)-3-p-tolylacrylamido)methyl)-1,4-diazepan-2-yl)propyl)cyclohexanecarboxamide] | < 1000
9 | N=C(N)NCCC[C@@H]1N[C@H](CNC(=O)c2ccc3ccccc3c2)CCN(CC(Oc2ccccc2)c2ccccc2)C1=O (stereo partly drawn) [Compound 295, N-(((3S,5S)-3-(3-guanidinopropyl)-2-oxo-1-(2-phenoxy-2-phenylethyl)-1,4-diazepan-5-yl)methyl)-2-naphthamide] | < 100
10 | CCOC(=O)C(CN1CC[C@@H](CNC(=O)c2ccc3ccccc3c2)N[C@@H](CCCNC(=N)N)C1=O)c1ccccc1 (stereo partly drawn) [Compound 296, ethyl 3-((3S,5S)-5-((2-naphthamido)methyl)-3-(3-guanidinopropyl)-2-oxo-1,4-diazepan-1-yl)-2-phenylpropanoate] | < 1000
11 | CCC(CC)CN1CC[C@@H](CNC(=O)c2ccc3ccccc3c2)N[C@@H](CCCNC(=N)N)C1=O [Compound 297, N-(((3S,5S)-1-(2-ethylbutyl)-3-(3-guanidinopropyl)-2-oxo-1,4-diazepan-5-yl)methyl)-2-naphthamide] | < 1000
12 | CC1CC(C)CC(CN2CC[C@@H](CNC(=O)c3ccc4ccccc4c3)N[C@@H](CCCNC(=N)N)C2=O)C1 (stereo partly drawn) [Compound 298, N-(((3S,5S)-1-((3,5-dimethylcyclohexyl)methyl)-3-(3-guanidinopropyl)-2-oxo-1,4-diazepan-5-yl)methyl)-2-naphthamide] | < 100
13 | NCC[C@@H]1N[C@H](CCNC(=O)c2ccc3ccccc3c2)CCN(CC(c2ccccc2)c2ccccc2)C1=O [Compound 303, N-(2-((3S,5R)-1-(2,2-diphenylethyl)-2-oxo-3-(2-aminoethyl)-1,4-diazepan-5-yl)ethyl)-2-naphthamide] | < 1000
14 | O=C(NCC[C@@H]1CCN(CC(c2ccccc2)c2ccccc2)C(=O)[C@H](CCN2CCCCC2)N1)c1ccc2ccccc2c1 [Compound 306, N-(2-((3S,5R)-1-(2,2-diphenylethyl)-2-oxo-3-(2-(piperidin-1-yl)ethyl)-1,4-diazepan-5-yl)ethyl)-2-naphthamide] | < 1000
15 | CN(C)C(=O)C(CN1CC[C@@H](CNC(=O)c2ccc3ccccc3c2)N[C@@H](CCCNC(=N)N)C1=O)c1ccccc1 (stereo partly drawn) [Compound 307, N-(((3S,5S)-1-(3-(dimethylamino)-3-oxo-2-phenylpropyl)-3-(3-guanidinopropyl)-2-oxo-1,4-diazepan-5-yl)methyl)-2-naphthamide] | < 10000
16 | N=C(N)NCCC[C@@H]1N[C@H](CNC(=O)c2ccc3ccccc3c2)CCN(Cc2cc(F)cc(Cl)c2)C1=O [Compound 310, N-(((3S,5S)-1-(3-chloro-5-fluorobenzyl)-3-(3-guanidinopropyl)-2-oxo-1,4-diazepan-5-yl)methyl)-2-naphthamide] | < 1000

Row | Structure (SMILES) | IC50 [nM]
17 | N=C(N)NCCC[C@@H]1N[C@H](CNC(=O)c2ccc3ccccc3c2)CCN(Cc2cc(F)cc(F)c2)C1=O [Compound 311, N-(((3S,5S)-1-(3,5-difluorobenzyl)-3-(3-guanidinopropyl)-2-oxo-1,4-diazepan-5-yl)methyl)-2-naphthamide] | < 1000
18 | NCCC[C@@H]1N[C@H](CNC(=O)c2ccc3ccccc3c2)CCN(Cc2cc(F)cc(Cl)c2)C1=O [Compound 312, N-(((3S,5S)-3-(3-aminopropyl)-1-(3-chloro-5-fluorobenzyl)-2-oxo-1,4-diazepan-5-yl)methyl)-2-naphthamide] | < 1000
19 | NCCC[C@@H]1N[C@H](CNC(=O)c2ccc3ccccc3c2)CCN(Cc2cc(F)cc(F)c2)C1=O [Compound 313, N-(((3S,5S)-3-(3-aminopropyl)-1-(3,5-difluorobenzyl)-2-oxo-1,4-diazepan-5-yl)methyl)-2-naphthamide] | < 10000
20 | NCCC[C@@H]1N[C@H](CNC(=O)c2ccc3ccccc3c2)CCN(Cc2cc(Cl)ccc2Cl)C1=O [Compound 314, N-(((3S,5S)-3-(3-aminopropyl)-1-(2,5-dichlorobenzyl)-2-oxo-1,4-diazepan-5-yl)methyl)-2-naphthamide] | < 10000
21 | NCCC[C@@H]1N[C@H](CNC(=O)c2ccc3ccccc3c2)CCN(Cc2c(Cl)cccc2Cl)C1=O [Compound 315, N-(((3S,5S)-3-(3-aminopropyl)-1-(2,6-dichlorobenzyl)-2-oxo-1,4-diazepan-5-yl)methyl)-2-naphthamide] | < 10000
22 | COc1cc(CN2CC[C@@H](CNC(=O)c3ccc4ccccc4c3)N[C@@H](CCCN)C2=O)cc(OC)c1 [Compound 316, N-(((3S,5S)-3-(3-aminopropyl)-1-(3,5-dimethoxybenzyl)-2-oxo-1,4-diazepan-5-yl)methyl)-2-naphthamide] | < 10000
23 | NCCC[C@@H]1N[C@H](CNC(=O)c2ccc3ccccc3c2)CCN(Cc2ccccc2Cl)C1=O [Compound 317, N-(((3S,5S)-3-(3-aminopropyl)-1-(2-chlorobenzyl)-2-oxo-1,4-diazepan-5-yl)methyl)-2-naphthamide] | < 10000
24 | NCCC[C@@H]1N[C@H](CNC(=O)c2ccc3ccccc3c2)CCN(Cc2cccc(Cl)c2Cl)C1=O [Compound 318, N-(((3S,5S)-3-(3-aminopropyl)-1-(2,3-dichlorobenzyl)-2-oxo-1,4-diazepan-5-yl)methyl)-2-naphthamide] | < 10000
25 | NCCC[C@@H]1N[C@H](CNC(=O)c2ccc3ccccc3c2)CCN(Cc2ccc(Cl)cc2Cl)C1=O [Compound 319, N-(((3S,5S)-3-(3-aminopropyl)-1-(2,4-dichlorobenzyl)-2-oxo-1,4-diazepan-5-yl)methyl)-2-naphthamide] | < 1000
26 | NCCC[C@@H]1N[C@H](CNC(=O)c2ccc3ccccc3c2)CCN(Cc2ccc(Cl)c(Cl)c2)C1=O [Compound 320, N-(((3S,5S)-3-(3-aminopropyl)-1-(3,4-dichlorobenzyl)-2-oxo-1,4-diazepan-5-yl)methyl)-2-naphthamide] | < 10000
27 | Cc1cc(F)cc(CN2CC[C@@H](CNC(=O)c3ccc4ccccc4c3)N[C@@H](CCCN)C2=O)c1 [Compound 321, N-(((3S,5S)-3-(3-aminopropyl)-1-(3-fluoro-5-methylbenzyl)-2-oxo-1,4-diazepan-5-yl)methyl)-2-naphthamide] | < 10000
28 | NCCC[C@@H]1N[C@H](CNC(=O)c2ccc3ccccc3c2)CCN(Cc2cc(F)cc(C(F)(F)F)c2)C1=O [Compound 322, N-(((3S,5S)-3-(3-aminopropyl)-1-(3-fluoro-5-(trifluoromethyl)benzyl)-2-oxo-1,4-diazepan-5-yl)methyl)-2-naphthamide] | < 10000
29 | NCCC[C@@H]1N[C@H](CNC(=O)c2ccc3ccccc3c2)CCN(Cc2ccc(Cl)cc2)C1=O [Compound 323, N-(((3S,5S)-3-(3-aminopropyl)-1-(4-chlorobenzyl)-2-oxo-1,4-diazepan-5-yl)methyl)-2-naphthamide] | < 10000
30 | CCC(CN1CC[C@@H](CNC(=O)c2ccc3ccccc3c2)N[C@@H](CCCN)C1=O)c1ccccc1 (stereo partly drawn) [Compound 324, N-(((3S,5S)-3-(3-aminopropyl)-2-oxo-1-(2-phenylbutyl)-1,4-diazepan-5-yl)methyl)-2-naphthamide] | < 1000
31 | NCCC[C@@H]1N[C@H](CNC(=O)c2ccc3ccccc3c2)CCN(CC2(c3ccccc3)CCCCC2)C1=O [Compound 325, N-(((3S,5S)-3-(3-aminopropyl)-2-oxo-1-((1-phenylcyclohexyl)methyl)-1,4-diazepan-5-yl)methyl)-2-naphthamide] | < 1000
32 | O=C(NC[C@@H]1CCN(Cc2cc(Cl)cc(Cl)c2)C(=O)[C@H](CCN2CCCCC2)N1)c1ccc2ccccc2c1 [Compound 327, N-(((3S,5S)-1-(3,5-dichlorobenzyl)-2-oxo-3-(2-(piperidin-1-yl)ethyl)-1,4-diazepan-5-yl)methyl)-2-naphthamide] | < 100
